Experimental data from patent US12017994B2 (SYMBERIX, INC., priority 2017, dated 2024).
Several values for one entry are separate records, joined by “and”; a condition that tells them apart may be missing. Equal values may be shown once. Entries after “also recorded” stand apart in the source; their conditions may differ. Read-outs that look alike come from different tables or passages of the source.

Tests used:
[1] = biological target: Purified bacterial β-glucuronidases (Escherichia coli, UniProt P05804); type: biochemical; settings: PNPG substrate, 5 nM enzyme
Excerpt: Successful drug candidate compounds were subjected to numerous biochemical and cellular assays. Purified bacterial β-glucuronidases were challenged with compounds to determine inhibition properties in a standard, robust activity assay, utilizing p-nitrophenyl glucuronide (PNPG) as the enzymatic substrate.

E. coli GUS = E. coli GUS (Escherichia coli (strain K12), UniProt P05804); settings: 30 minutes incubation, then NAD+ and UDH
Excerpt: Addition of UDH and nicotinamide adenine dinucleotide (NAD+) to a reaction solution containing free GA results in the catalysis of free GA to D-glucurate and the concomitant reduction of NAD+ to NADH. NADH can be detected photometrically by monitoring absorbance at 340 nm (FIG. 4).

[2] = test system: β-glucuronidase activity in live, cultured bacterial cells; test: β-glucuronidase activity in live, cultured bacterial cells (PNPG substrate); type: cell-based; settings: 2 hour incubation
purified E. coli GUS = purified E. coli GUS (Escherichia coli (strain K12), UniProt P05804); test: PNPG-PNP GUS cleavage assay, purified E. coli GUS; type: biochemical; settings: preincubation one minute to four hours
[3] = test system: GUS activity in live E. coli; test: PNPG-PNP GUS cleavage assay, live E. coli
[4] = parent compound, read-out: Cell Based Inhibition IC50 (nM) Parent

Chain of E. coli GUS (P05804 whole entry, looked up): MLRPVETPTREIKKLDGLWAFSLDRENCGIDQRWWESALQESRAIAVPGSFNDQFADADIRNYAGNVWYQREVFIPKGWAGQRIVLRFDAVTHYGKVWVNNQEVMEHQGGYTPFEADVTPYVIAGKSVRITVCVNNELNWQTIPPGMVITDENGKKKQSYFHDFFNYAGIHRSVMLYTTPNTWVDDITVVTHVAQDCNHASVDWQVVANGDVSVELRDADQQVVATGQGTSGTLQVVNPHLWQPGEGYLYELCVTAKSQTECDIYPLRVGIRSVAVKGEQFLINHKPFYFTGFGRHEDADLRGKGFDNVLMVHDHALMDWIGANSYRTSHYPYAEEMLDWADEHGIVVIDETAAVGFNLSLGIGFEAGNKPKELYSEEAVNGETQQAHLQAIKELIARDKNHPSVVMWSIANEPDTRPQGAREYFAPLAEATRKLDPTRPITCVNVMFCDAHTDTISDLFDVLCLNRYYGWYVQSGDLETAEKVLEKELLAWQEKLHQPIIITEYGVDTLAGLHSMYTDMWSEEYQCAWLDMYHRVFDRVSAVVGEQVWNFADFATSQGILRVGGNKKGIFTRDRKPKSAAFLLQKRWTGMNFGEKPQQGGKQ
Chain of purified E. coli GUS (P05804 whole entry, looked up): as above

`Cc1cc(C)c2[nH]c(=O)c(CN(CCO)C(=O)Nc3cccc(C(C)C)c3)cc2c1` [Ref #41′, 1-[(6,8-dimethyl-2-oxo-1H-quinolin-3-yl)methyl]-1-(2-hydroxyethyl)-3-(3-isopropylphenyl)urea] gave an IC50 [1] of 6.73 µM.
`COc1ccc(NC(=O)N(CCO)C(C)c2cc3cc(C)cc(C)c3[nH]c2=O)cc1` (stereo not shown) [Ref #34′, 1-[1-(6,8-dimethyl-2-oxo-1H-quinolin-3-yl)ethyl]-1-(2-hydroxyethyl)-3-(4-methoxyphenyl)urea] was tested, and the IC50 [1] was > 50 µM.
In the case of `Cc1cc(C)c2[nH]c(=O)c(CN(CCO)C(=O)Nc3cccnc3)cc2c1` [Ref #18′, 1-[(6,8-dimethyl-2-oxo-1H-quinolin-3-yl)methyl]-1-(2-hydroxyethyl)-3-(3-pyridyl)urea], the IC50 [1] is reported as > 50 µM.
In the case of “chenodeoxycholate-glucuronide [reference compound]”, the “free GA / NADH formation after incubation with E. coli GUS (cleavage by GUS)” value (E. coli GUS) is reported as “detected only for the positive control”.
For `CCOc1ccc(NC(=S)N(CCO[C@@H]2O[C@H](C(=O)O)[C@@H](O)[C@H](O)[C@H]2O)Cc2cc3cc(C)cc(C)c3[nH]c2=O)cc1` [Inh1-G], the “free GA / NADH formation after incubation with E. coli GUS (cleavage by GUS)” value (E. coli GUS) was “No free GA was detected; also recorded: does not cleave”, the IC50 ([2]; glucuronide of the compound, read-out: Cell Based Inhibition IC50 (nM) Glucuronide) was 8.8 nM and the IC50 (purified E. coli GUS) was ~1 µM. The “increase in potency in live E. coli” value ([3]; 1-min pre-incubation) was “approximately 20 fold”, the “increase in potency in live E. coli” value ([3]; 2-hr pre-incubation) was ~100 fold and the “increase in potency in live E. coli” value ([3]; 4-hr pre-incubation) was ~1000 fold and > 1000 fold. It also gave an IC50 ([3]; read-out: IC50 in live E. coli, after 4 hr incubation) of 0.001 µM.
Compound `C#Cc1cc(F)ccc1NC(=O)N(CCO)Cc1cc2cc(C)cc(C)c2[nH]c1=O` [Ref #45′, 1-[(6,8-dimethyl-2-oxo-1H-quinolin-3-yl)methyl]-3-(2-ethynyl-4-fluoro-phenyl)-1-(2-hydroxyethyl)urea] has an IC50 [1] of 1.1 µM.
With `Cc1cccc(NC(=O)N(CCO)Cc2cc3cc(C)cc(C)c3[nH]c2=O)c1` [Ref #38′, 1-[(6,8-dimethyl-2-oxo-1H-quinolin-3-yl)methyl]-1-(2-hydroxyethyl)-3-(m-tolyl)urea] the IC50 [1] was 1.66 µM.
With `Cc1cc(C)c2[nH]c(=O)c(C(C)N(CCO)C(=O)Nc3ccccc3C)cc2c1` (stereo not shown) [Ref #31′, 1-[1-(6,8-dimethyl-2-oxo-1H-quinolin-3-yl)ethyl]-1-(2-hydroxyethyl)-3-(o-tolyl)urea] the IC50 [1] was > 50 µM.
For `CCOc1ccc(NC(=O)N(CCO)Cc2cc3cc(C)cc(C)c3[nH]c2=O)cc1`, the IC50 [2, 4] was 890 nM.
For `Cc1cc(C)c2[nH]c(=O)c(CN(CCO)C(=O)Nc3ccccc3-c3ccccc3)cc2c1` [Ref #14′, 1-[(6,8-dimethyl-2-oxo-1H-quinolin-3-yl)methyl]-1-(2-hydroxyethyl)-3-(2-phenylphenyl)urea], the IC50 [1] was 6.16 µM and 6.44 µM.
Work on `Cc1cc(C)c2[nH]c(=O)c(C(C)N(CCO)C(=O)Nc3ccccc3C(C)C)cc2c1` (stereo not shown) [Ref #29′, 1-[1-(6,8-dimethyl-2-oxo-1H-quinolin-3-yl)ethyl]-1-(2-hydroxyethyl)-3-(2-isopropylphenyl)urea] yielded an IC50 [1] of 6.44 µM.
`CCOc1ccc(NC(=S)N(CCO)Cc2cc3cc(C)cc(C)c3[nH]c2=O)cc1` [Inh1, reference compound] showed an IC50 [2, 4] of 890 nM.
For `Cc1cc(C)c2[nH]c(=O)c(C(C)N(CCO)C(=O)Nc3ccc(F)cc3I)cc2c1` (stereo not shown) [Ref #30′, 1-[1-(6,8-dimethyl-2-oxo-1H-quinolin-3-yl)ethyl]-3-(4-fluoro-2-iodo-phenyl)-1-(2-hydroxyethyl)urea], the IC50 [1] was 13 µM.
